Assay results reported in patent US11571412B2, “Thromboxane receptor antagonists in AERD/asthma” (Cumberland Pharmaceuticals Inc., priority 2015, dated 2023).
“Also recorded” adds a separate entry of the source. Where two headings read alike, the source gives them in different places.

Key:
[1] = system: patients with a history of aspirin exacerbated respiratory disease (AERD); assay: Multicenter, double-blind, randomized, placebo-controlled trial of oral ifetroban with aspirin challenge/desensitization (AERD Phase 2a); type: in vivo, human; settings: for Incidence of an AIR by Aspirin Dose: AIR population n = 10; for NIFR ≥25% decrease / NIFR ≥25% increase / TNSS ≥25% decrease / TNSS ≥25% increase: ifetroban 200 mg/day oral; for Rescue Medications Mean (SD): to resolve an AIR
Description: Example IV is a multicenter, double-blind, randomized, placebo-controlled trial to determine the safety of oral ifetroban in patients with a history of aspirin exacerbated respiratory disease (AERD).
The eligible subjects were randomized (3:1 active to placebo) in this 7-day study which consisted of a screening, treatment and follow-up period. Any subject receiving at least a partial dose of IMP were not replaced and included in the study analysis. Of 19 subjects enrolled and randomized to study treatment, 14 (74%) were randomized to the ifetroban group and 5 (26%) to the placebo group. Of those 14 randomized to ifetroban, 12 (86%) subjects were treated and 100% of those treated completed treatment. Of 5 subjects randomized to placebo, 4 (80%) started treatment and 100% completed treatment. All treated subjects were analyzed for safety and efficacy variables.
All individuals with AERD will experience a clinical reaction to aspirin, most often at a dose of 81 mg or below. By utilizing a modified Scripps Institute protocol (Hope, Woessner, Simon, & Stevenson, 2009), limiting the study to individuals with stable asthma and no history of life-threatening reaction to COX inhibitors and administering the cysteinyl leukotriene receptor 1 (Cys-LT1) antagonist montelukast to all individuals undergoing the challenge/desensitization, the procedure could safely be done in an ambulatory/outpatient clinic setting. […] Thus, montelukast substantially increases the safety of aspirin challenge/desensitization and it is the standard of care to use montelukast as a pre-treatment for subjects with AERD undergoing a planned aspirin challenge/desensitization.
The primary objective of this study was to determine the safety of oral ifetroban compared to placebo as measured by a ≥20% decrease in Forced Expiratory Volume in 1 second (FEV1) compared to baseline following a dose of Investigational Medicinal Product (IMP) (Study Day 1) or following a dose of IMP but prior to initiation of the aspirin challenge. Secondary objectives were: (i) to determine the safety of oral ifetroban compared to placebo as measured by peak Nasal Inspiratory Flow Rate (NIFR) compared to baseline following a dose of IMP (Study Day 1) or following a dose of IMP but prior to initiation of the aspirin challenge; (ii) to determine the safety of oral ifetroban compared to placebo as measured by the change in Total Nasal Symptom Score (TNSS) compared to baseline following a dose of IMP (Study Day 1) or following a dose of IMP but prior to initiation of the aspirin challenge; (iii) to determine the safety and tolerability of oral ifetroban compared to placebo as measured by treatment-emergent adverse events; (iv) to determine the efficacy of oral ifetroban compared to placebo in decreasing the respiratory reaction to oral aspirin as measured by the change in FEV1 compared to baseline during the aspirin challenge; (v) to determine the efficacy of oral ifetroban compared to placebo in decreasing the respiratory reaction to oral aspirin as measured by the change in NIFR compared to baseline during the aspirin challenge; (vi) to determine the efficacy of oral ifetroban compared to placebo in decreasing the respiratory reaction to oral aspirin as measured by the change in TNSS compared to baseline during the aspirin challenge; (vii) to determine the efficacy of oral ifetroban compared to placebo in decreasing the respiratory reaction to oral aspirin as measured by the amount of rescue medication during the aspirin challenge; (viii) to determine the efficacy of oral ifetroban compared to placebo in decreasing respiratory sensitivity to COX-1 inhibition as measured by the aspirin desensitization dose level; and (ix) to determine the efficacy of oral ifetroban compared to placebo as measured by the number of asthmatic reactions during the Treatment Period. […]

[2] = system: TP receptor-induced bronchospasm; settings: rats; cited from earlier work
guinea pig trachea = settings: in vitro; cited from earlier work
[3] = system: TP receptor-induced bronchospasm; settings: guinea pigs; cited from earlier work
Df-treated ptges−/− mice = settings: cited from earlier work; for Reaction to aspirin (peak change in RL in response to Lys-ASA challenge): two doses of antagonist prior to challenge with Lys-ASA
CYP2C9 = CYP2C9 (Homo sapiens, UniProt P11712); settings: cited from earlier work
CYP3A4 = CYP3A4 (Homo sapiens, UniProt P08684); settings: cited from earlier work
[4] = Phase A, n = 12, listed as ifetroban
[5] = Phase B (aspirin challenge), n = 12
[6] = aspirin desensitization, n = 12
[7] = column headed Phase C (overall, during the study), n = 12
[8] = subjects that experienced an AIR
[9] = subjects that experienced an AIR, listed as ifetroban

CYP3A4, sequence (P08684 whole entry): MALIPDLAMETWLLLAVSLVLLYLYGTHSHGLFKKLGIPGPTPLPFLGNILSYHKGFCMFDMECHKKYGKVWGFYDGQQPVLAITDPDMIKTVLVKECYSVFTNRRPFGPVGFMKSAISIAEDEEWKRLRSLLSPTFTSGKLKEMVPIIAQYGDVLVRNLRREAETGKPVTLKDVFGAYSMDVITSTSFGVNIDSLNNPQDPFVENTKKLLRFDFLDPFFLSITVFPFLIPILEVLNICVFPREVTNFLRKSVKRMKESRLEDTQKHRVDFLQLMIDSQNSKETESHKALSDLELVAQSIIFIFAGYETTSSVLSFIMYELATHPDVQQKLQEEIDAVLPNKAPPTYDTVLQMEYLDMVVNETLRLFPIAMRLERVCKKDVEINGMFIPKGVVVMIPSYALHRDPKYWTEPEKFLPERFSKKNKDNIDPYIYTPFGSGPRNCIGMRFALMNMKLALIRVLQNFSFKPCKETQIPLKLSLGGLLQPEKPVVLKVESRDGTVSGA
CYP2C9, sequence (P11712 whole entry): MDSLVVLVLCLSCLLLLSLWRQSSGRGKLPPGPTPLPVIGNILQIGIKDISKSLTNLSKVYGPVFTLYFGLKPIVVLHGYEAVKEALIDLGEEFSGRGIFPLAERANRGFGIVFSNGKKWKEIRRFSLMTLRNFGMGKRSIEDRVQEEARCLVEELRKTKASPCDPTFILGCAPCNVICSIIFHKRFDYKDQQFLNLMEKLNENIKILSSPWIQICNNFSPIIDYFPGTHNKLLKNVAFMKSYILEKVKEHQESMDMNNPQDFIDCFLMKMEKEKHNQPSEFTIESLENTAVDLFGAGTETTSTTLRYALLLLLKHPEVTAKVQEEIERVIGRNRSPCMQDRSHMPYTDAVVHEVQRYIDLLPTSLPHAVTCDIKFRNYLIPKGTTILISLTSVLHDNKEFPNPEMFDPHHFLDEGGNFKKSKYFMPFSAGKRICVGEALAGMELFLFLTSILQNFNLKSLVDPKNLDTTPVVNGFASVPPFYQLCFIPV

## CCCCCNC(=O)c1coc([C@H]2[C@@H](Cc3ccccc3CCC(=O)O)[C@@H]3CC[C@H]2O3)n1 [Ifetroban, [1S-(1α,2α,3α,4α)]-2-[[3-[4-[(Pentylamino)carbonyl]-2-oxazolyl]-7-oxabicyclo[2.2.1]hept-2-yl]methyl]-benzenepropanoic acid]
[1]; 7.33 (placebo) versus 2.90 (ifetroban) to resolve an AIR
  Difference in mean rescue medications, placebo versus ifetroban: 2.5 fold
[1]; AIR subjects n = 10
  Severity of an AIR: All Symptoms (total number): 43
[1]; Aspirin Dose 30 mg
  Incidence of an AIR by Aspirin Dose: 0 No. of Subjects (%)
[1]; Aspirin Dose 60 mg
  Incidence of an AIR by Aspirin Dose: 5 (50) No. of Subjects (%)
[1]; Aspirin Dose 100 mg
  Incidence of an AIR by Aspirin Dose: 5 (50) No. of Subjects (%)
[1]; Aspirin Dose 150 mg
  Incidence of an AIR by Aspirin Dose: 0 No. of Subjects (%)
[1]; Aspirin Dose 325 mg
  Incidence of an AIR by Aspirin Dose: 0 No. of Subjects (%)
[1]; Phase A, n = 12
  NIFR ≥25% decrease: 2(17) No. of Subjects (%)
  NIFR ≥25% increase: 3(25) No. of Subjects (%)
  TNSS ≥25% decrease: 1(8) No. of Subjects (%)
  TNSS ≥25% increase: 0 No. of Subjects (%)
[1]; [4]
  TNSS ≥25% decrease: 1 (8%) No. of Subjects (%)
  TNSS ≥25% increase: No subject
[1]; [5]
  NIFR ≥25% decrease: 4(33) No. of Subjects (%)
  NIFR ≥25% increase: 7(58) No. of Subjects (%)
  TNSS ≥25% decrease: 2(17) No. of Subjects (%)
  TNSS ≥25% increase: 3(25) No. of Subjects (%)
[1]; Phase B (aspirin challenge), n = 12, listed as ifetroban
  TNSS ≥25% decrease: 2 (17%) No. of Subjects (%)
[1]; aspirin challenge
  Average number of symptoms per AIR compared to placebo: comparable between treatment groups
  Bronchial reaction (<20% decrease in FEV1, wheezing, chest tightness) as part of the AIR compared to placebo: at a similar rate
  Ocular manifestation compared to placebo: seems to trend toward the placebo arm more often than on the ifetroban arm
  Upper respiratory effect (rhinorrhea, nasal obstruction, sneezing) compared to placebo: equally as common between treatment groups
[1]; aspirin challenge (phase B)
  Number of rescue medications compared to placebo (trend): apparent trend toward fewer rescue medications in favor of the ifetroban group
  Total Number of Rescue Medications: 29
[1]; [6]
  Aspirin-induced Reaction (AIR): No: 2 (17) No. of Subjects (%)
  Aspirin-induced Reaction (AIR): Yes: 10 (83) No. of Subjects (%)
[1]; between treatment groups
  Proportion of subjects with worsening NIFR or TNSS compared to placebo: no clear trends were observed; also recorded: no appreciable difference was observed
[1]; [7]
  NIFR ≥25% decrease: 5(42) No. of Subjects (%)
  NIFR ≥25% increase: 9(75) No. of Subjects (%)
  TNSS ≥25% decrease: 2(17) No. of Subjects (%)
  TNSS ≥25% increase: 3(25) No. of Subjects (%)
[1]; column headed Phase C (overall, during the study), n = 12, listed as ifetroban
  NIFR ≥25% increase: 9 (75%) No. of Subjects (%)
[1]; during IMP treatment or the aspirin desensitization process, 200 mg/day
  ≥20% decrease in FEV1 (primary endpoint): did not cause a ≥20% decrease in FEV1
[1]; during both phase A and phase B
  Subjects with ≥25% decrease in peak NIFR during both phase A and phase B: One
[1]; during phase A and phase B
  Improvements to NIFR and TNSS compared to placebo: observed trend in favor of the ifetroban group toward greater improvements
[1]; during the study
  Subjects with ≥50% or 75% increase or decrease in TNSS: No one
[1]; ifetroban at 200 mg/day
  AEs reported compared to placebo: no increase in AEs
[1]; ifetroban at 200 mg/day, subjects with a history of AERD
  Safety and tolerability: well tolerated and safe
[1]; ifetroban at a dose of 200 mg/day
  Symptoms of aspirin desensitization in AERD patients: may be diminished
[1]; n = 10
  Severity of an AIR: <20% decrease in FEVI (number): 9
  Severity of an AIR: <20% decrease in FEVI Mean: 0.9
  Severity of an AIR: All Symptoms Median: 4
  Severity of an AIR: All Symptoms Min, Max: 3.7
  Severity of an AIR: Lower Respiratory (number of symptoms): 13
  Severity of an AIR: Lower Respiratory Mean: 1.3
  Severity of an AIR: Ocular (number of symptoms): 5
  Severity of an AIR: Ocular Mean: 0.5
  Severity of an AIR: Upper Respiratory (number of symptoms): 25
  Severity of an AIR: Upper Respiratory Mean: 2.5
[1]; per AIR, n = 10
  Severity of an AIR: All Symptoms Mean(SD): 4.3(1.34)
[1]; phase A prior to aspirin initiation
  Asthmatic reactions reported or rescue medications used: No asthmatic reactions were reported or rescue medications used
[1]; provoking aspirin dose 60 mg
  Initial reactions occurring at the 60-mg aspirin dose: 50%
[1]; [8]
  Required Rescue Medication: No: 1 (10) No. of Subjects (%)
  Required Rescue Medication: Yes: 9 (90) No. of Subjects (%)
  Rescue Medications Max: 7
  Rescue Medications Median: 3
  Rescue Medications Min: 0
  Rescue Medications Mean (SD): 2.90 (2.02)
[1]; [9]
  Required Rescue Medication: No: 1 (10%) No. of Subjects (%)
  Rescue Medications Mean (SD): 2.90
[1]; throughout the 7-day study period
  Rescue medication outside the clinic for an asthmatic reaction: no subject required rescue medication outside the clinic
[1]; throughout the treatment period
  Mean changes from baseline FEV1: below 20%
[2]
  TP receptor-induced bronchospasm: both preempt and reverse
Guinea pig trachea
  Contraction of guinea pig trachea elicited by PGD2: inhibit contraction
[3]
  TP receptor-induced bronchospasm: both preempt and reverse

## CC(c1ccccc1)C(O)/C=C/C1C2CCC(O2)C1C/C=C\CCCC(=O)O (stereo not drawn) [[1S-(1α, 2α(Z), 3α(1E, 3S*, 4R*), 4α)]]-7-[3-(3-hydroxy-4-phenyl-1-pentenyl)-7-oxabicyclo[2.2.1]hept-2-yl]-5-heptenoic acid]
Df-treated ptges−/− mice; ptges−/− mice, Lys-ASA challenge
  Rise in cys-LTs (BAL fluid): completely blocked
Df-treated ptges−/− mice; ptges−/− mice
  Reaction to aspirin (peak change in RL in response to Lys-ASA challenge): completely blocked
Df-treated ptges−/− mice; ptges−/− mice, listed as SQ29.548
  Reaction to aspirin (peak change in RL in response to Lys-ASA challenge): attenuates aspirin sensitivity

## CC(C)(O)c1ccccc1CC[C@@H](SCC1(CC(=O)O)CC1)c1cccc(/C=C/c2ccc3ccc(Cl)cc3n2)c1 [montelukast]
CYP2C9
  Inhibition of CYP2C9: does not inhibit
CYP3A4
  Inhibition of CYP3A4: does not inhibit

## CC(c1cc2ccccc2s1)N(O)C(N)=O (centres unmarked) [zileuton]
Df-treated ptges−/− mice; Df-treated ptges−/− mice
  Increase in airway resistance on inhalation of Lysine aspirin: sensitive to interference
